Measurements: PMC4803471 (Anesthesiology, 2016)
Where two headings read alike, the source gives them in different places.

What was measured:
[1] = system: Sprague-Dawley rats; assay: Rat loss of righting reflexes; details: intravenous, dose producing LORR in 50% of rats
[2] = system: Sprague-Dawley rats; details: previously published value; cited from earlier work
[3] = previously published value; cited from earlier work
[4] = target: α1(L264T)β3γ2 GABAA receptors (Homo sapiens, UniProt P14867+P28472, L291T); type: cell-based; details: for Peak amplitude of evoked current: representative trace, single oocyte
[5] = Octanol:water partition coefficient determination; type: physicochemical; details: mean ± SD

Sequence of α1(L264T)β3γ2 GABAA receptors (P14867 28-456 L291T): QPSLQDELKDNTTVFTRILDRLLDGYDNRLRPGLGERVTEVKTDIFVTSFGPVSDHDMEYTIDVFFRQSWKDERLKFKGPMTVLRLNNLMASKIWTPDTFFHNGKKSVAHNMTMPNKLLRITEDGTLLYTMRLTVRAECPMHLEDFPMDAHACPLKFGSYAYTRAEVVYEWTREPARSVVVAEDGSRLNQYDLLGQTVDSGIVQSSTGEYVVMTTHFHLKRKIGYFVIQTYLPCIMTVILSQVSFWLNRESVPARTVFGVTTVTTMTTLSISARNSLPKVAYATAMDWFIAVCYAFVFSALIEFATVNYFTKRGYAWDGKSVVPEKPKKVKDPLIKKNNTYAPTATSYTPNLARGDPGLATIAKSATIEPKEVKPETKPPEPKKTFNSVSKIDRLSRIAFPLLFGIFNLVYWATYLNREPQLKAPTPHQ
Sequence of α1(L264T)β3γ2 GABAA receptors (P28472 26-473): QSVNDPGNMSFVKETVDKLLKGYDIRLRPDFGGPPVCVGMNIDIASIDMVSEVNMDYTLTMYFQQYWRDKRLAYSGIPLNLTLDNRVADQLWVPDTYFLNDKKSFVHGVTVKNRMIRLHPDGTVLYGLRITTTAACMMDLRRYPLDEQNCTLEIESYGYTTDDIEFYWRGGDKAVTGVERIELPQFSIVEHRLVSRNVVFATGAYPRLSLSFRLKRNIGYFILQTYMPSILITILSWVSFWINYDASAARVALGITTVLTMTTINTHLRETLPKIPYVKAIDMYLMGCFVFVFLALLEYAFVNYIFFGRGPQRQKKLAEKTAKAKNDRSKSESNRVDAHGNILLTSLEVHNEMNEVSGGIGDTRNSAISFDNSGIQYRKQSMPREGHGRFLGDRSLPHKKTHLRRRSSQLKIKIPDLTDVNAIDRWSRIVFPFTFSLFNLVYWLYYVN
Sequence of α1(L264T)β3γ2 GABAA receptors (P18507 40-475 partner): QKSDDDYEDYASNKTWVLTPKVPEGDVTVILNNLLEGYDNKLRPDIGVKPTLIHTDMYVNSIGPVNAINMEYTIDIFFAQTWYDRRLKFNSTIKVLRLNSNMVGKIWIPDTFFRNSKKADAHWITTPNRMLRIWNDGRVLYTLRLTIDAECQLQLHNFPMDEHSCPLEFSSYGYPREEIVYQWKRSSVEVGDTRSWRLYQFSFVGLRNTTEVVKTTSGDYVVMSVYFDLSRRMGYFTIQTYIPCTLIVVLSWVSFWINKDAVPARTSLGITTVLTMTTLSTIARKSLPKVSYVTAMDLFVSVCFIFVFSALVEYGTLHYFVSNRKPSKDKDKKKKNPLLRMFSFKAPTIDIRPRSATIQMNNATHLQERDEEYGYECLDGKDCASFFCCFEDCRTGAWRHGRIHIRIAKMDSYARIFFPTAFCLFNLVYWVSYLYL

Row | Molecule | Hypnotic ED50 (loss of righting reflexes) [2] | Octanol:Buffer Partition Coefficient [3] | other results
1 | 4-Pyridine carboetomidate [Compound 7] |  |  | Hypnotic ED50 (loss of righting reflexes) [1]: 25.0 ± 0.3 mg/kg
2 | CCOC(=O)c1cncn1[C@H](C)c1ccccc1 [Compound 1, Etomidate, reference compound] | 0.47 ± 0.17 (13) mg/kg | 731 ± 72 (13) | 
3 | COC(=O)c1cncn1C(C)c1ccccc1 (centres unmarked) [Compound 2, Metomidate, reference compound] |  |  | EC50 [4]: 4.4 ± 0.7 µM; Octanol:Buffer Partition Coefficient [5]: 380 ± 48
4 | CCOC(=O)c1cncn1[C@@H](C)c1ccccc1 [Compound 3, S-etomidate] | 5.2 ± 0.9 (13) mg/kg | 711 ± 90 (13) | 
5 | CCOC(=O)c1cncn1Cc1ccccc1 [Compound 4, Dihydrogen etomidate] | 5.2 ± 1 (13) mg/kg | 388 ± 32 (13) | 
6 | CCOC(=O)c1cncn1C1(c2ccccc2)CC1 [Compound 5, Cyclopropyletomidate] | 5.2 ± 0.7 (13) mg/kg | 458 ± 45 (13) | 
7 | CCOC(=O)c1cccn1[C@H](C)c1ccccc1 [Compound 6, Carboetomidate] | 7.7 ± 0.8 (18) mg/kg | 15,000 ± 3,700 (20) | Potency relative to 4-pyridine carboetomidate ([4]; fold higher GABAA receptor potency): 24 fold; GABAA receptors activated at the highest concentration studied (at most) ([4]; normalized to 100 μM GABA, limited by aqueous solubility): ≤ 68 ± 6%; Potency for directly activating GABAA receptors relative to etomidate ([4]; ratio of EC50s): approximately 1/8
8 | COC(=O)COC(=O)c1cncn1[C@H](C)c1ccccc1 [Compound 11, Methoxycarbonyl metomidate] | 11.1 ± 0.8 (19) mg/kg | 159 ± 15 (19) | 
9 | COC(=O)[C@H](C)OC(=O)c1cncn1[C@H](C)c1ccccc1 [Compound 12, S-methyl-methoxycarbonyl metomidate] | 3.5 ± 0.4 (19) mg/kg | 330 ± 16 (19) | 
10 | COC(=O)[C@@H](C)OC(=O)c1cncn1[C@H](C)c1ccccc1 [Compound 13, R-methyl-methoxycarbonyl metomidate] | 9.6 ± 1.9 (19) mg/kg | 380 ± 15 (19) | 
11 | COC(=O)C(C)(C)OC(=O)c1cncn1[C@H](C)c1ccccc1 [Compound 14, Dimethyl-methoxycarbonyl metomidate] | 0.72 ± 0.16 (19) mg/kg | 660 ± 110 (19) | 
12 | COC(=O)CCOC(=O)c1cncn1[C@H](c1ccccc1)C(C)C [Compound 16, (S)-isopropyl-methoxycarbonyl metomidate] | 1.2 ± 0.2 (19) mg/kg | 2,860 ± 67 (19) | Peak amplitude of evoked current ([4]; 1 μM): 0.29 μA; Peak amplitude of evoked current ([4]; 10 μM): 0.90 μA
13 | COC(=O)CCOC(=O)c1cncn1[C@@H](c1ccccc1)C(C)C [Compound 17, (R)-isopropyl-methoxycarbonyl metomidate] | 3.6 ± 0.8 (19) mg/kg | 3,830 ± 310 (19) | Peak amplitude of evoked current ([4]; 1 μM): 0.041 μA
14 | COC(=O)CCOC(=O)c1cncn1[C@H](C)c1ccccc1 [Compound 18, Methoxycarbonyl etomidate] | 5.3 ± 1.5 (19) mg/kg | 190 ± 25 (19) | 
15 | COC(=O)[C@@H](C)COC(=O)c1cncn1[C@H](C)c1ccccc1 [Compound 19, α-(S)-methyl methoxycarbonyl etomidate] | 3.1 ± 0.4 (19) mg/kg | 530 ± 170 (19) | 
16 | COC(=O)[C@H](C)COC(=O)c1cncn1[C@H](C)c1ccccc1 [Compound 20, α-(R)-methyl-methoxycarbonyl etomidate] | 5.2 ± 0.5 (19) mg/kg | 670 ± 120 (19) | 
17 | COC(=O)C(C)(C)COC(=O)c1cncn1[C@H](C)c1ccccc1 [Compound 21, α-Dimethyl-methoxycarbonyl etomidate] | 2.4 ± 1 (19) mg/kg | 2,240 ± 150 (19) | 
18 | COC(=O)C[C@@H](C)OC(=O)c1cncn1[C@H](C)c1ccccc1 [Compound 22, β-(R)-methyl-methoxycarbonyl etomidate] | 3.5 ± 0.6 (19) mg/kg | 500 ± 24 (19) | 
19 | COC(=O)CC(C)(C)OC(=O)c1cncn1C(C)c1ccccc1 (stereo not drawn) [Compound 23, β-Dimethyl-methoxycarbonyl etomidate] | 1.9 ± 0.3 (19) mg/kg | 1,580 ± 40 (19) | 
20 | Cyclopropyl methoxycarbonyl metomidate [Compound 15] | 0.69 ± 0.04 (19) mg/kg | 420 ± 11 (19) | 
21 | Racemic pentafluoroetomidate [Compound 8] |  |  | Octanol:Buffer Partition Coefficient [5]: 860 ± 260; Hypnotic ED50 (loss of righting reflexes) [1]: 1.7 ± 0.4 mg/kg
22 | S-pentafluoroetomidate [Compound 9] |  |  | EC50 of S-enantiomer relative to racemic mixture ([4]; fold higher EC50): 22 fold; Octanol:Buffer Partition Coefficient [5]: 880 ± 220; Hypnotic ED50 (loss of righting reflexes) [1]: 11.1 ± 0.8 mg/kg
